Measured values taken from US11299512B2 (priority 2016, dated 2022).
Like-named read-outs stand apart in the source and are kept apart here.

System: THP1 luciferase reporter cells
Test: cells
Format: cell-based
[1] = 16 hours, read-out: THP1-ISG-Luc with PFO, EC50
[2] = 16 hours, read-out: THP-ISG-Luc without PFO, EC50
[3] = Homo sapiens, THP-1, 16 h, read-out: THP1-ISG-Luc with PFO, EC50
[4] = Homo sapiens, THP-1, 16 h, read-out: THP-ISG-Luc without PFO, EC50

Structure (SMILES)	EC50 [1] [nM]	EC50 [2] [nM]	EC50 [3] [nM]	EC50 [4] [nM]
Nc1nc2c(ncn2[C@@H]2O[C@@H]3COP(=O)(S)OC4C(O)[C@H](n5ncc6c(N)ncnc65)O[C@@H]4COP(=O)(S)OC2C3O)c(=O)[nH]1 (single isomer, unassigned) [EA4]	100 to 1000	< 30000		
Nc1nc2c(ncn2[C@@H]2O[C@@H]3COP(=O)(S)OC4C(O)[C@H](n5ncc6c(N)ncnc65)O[C@@H]4COP(=O)(S)OC2C3O)c(=O)[nH]1 (single isomer, unassigned) [EA5]	> 1000	> 100000		
Nc1nc2c(ccn2[C@@H]2O[C@@H]3COP(=O)(S)OC4C(O)[C@H](n5cnc6c(N)ncnc65)O[C@@H]4COP(=O)(S)OC2C3O)c(=O)[nH]1 (single isomer, unassigned) [EA6]	> 1000	> 100000		
Nc1nc2c(ccn2[C@@H]2O[C@@H]3COP(=O)(S)O[C@@H]4C(O)[C@H](n5cnc6c(N)ncnc65)O[C@@H]4COP(=O)(S)O[C@H]2C3O)c(=O)[nH]1 (single isomer, unassigned) [EA7]			100 to 1000	< 30000
Nc1nc2c(ccn2[C@@H]2O[C@@H]3COP(=O)(S)OC4C(O)[C@H](n5cnc6c(N)ncnc65)O[C@@H]4COP(=O)(S)OC2C3O)c(=O)[nH]1 (single isomer, unassigned) [EA8]	100 to 1000	< 30000		
BP1(=O)OC[C@H]2O[C@@H](n3cnc4c(N)ncnc43)C(O)C2OP(=O)(O)OC[C@H]2O[C@@H](n3cnc4c(=O)[nH]c(N)nc43)C(O1)C2O (single isomer, unassigned) [EA9]			< 100	< 30000
Nc1nc2c(ccn2[C@@H]2O[C@@H]3COP(=O)(O)OC4C(O)[C@H](n5ccc6c(N)ncnc65)O[C@@H]4COP(=O)(S)OC2C3O)c(=O)[nH]1 (single isomer, unassigned) [EB1]	> 1000			30000 to 100000
Nc1nc2c(ccn2[C@@H]2O[C@@H]3COP(=O)(O)OC4C(O)[C@H](n5ccc6c(N)ncnc65)O[C@@H]4COP(=O)(S)OC2C3O)c(=O)[nH]1 (single isomer, unassigned) [EB2]	< 100	< 30000		
Nc1nc2c(ccn2[C@@H]2O[C@@H]3COP(=O)(O)OC4C(O)[C@H](n5cnc6c(N)ncnc65)O[C@@H]4COP(=O)(S)OC2C3O)c(=O)[nH]1 (single isomer, unassigned) [EB4]			> 1000	30000 to 100000
Nc1nc2c(cnn2[C@@H]2O[C@@H]3COP(=O)(S)OC4C(O)[C@H](n5cnc6c(N)ncnc65)O[C@@H]4COP(=O)(S)OC2C3O)c(=O)[nH]1 (single isomer, unassigned) [EB7]			> 1000	> 100000
Nc1nc2c(ncn2[C@@H]2O[C@@H]3COP(=O)(O)OC4C(O)[C@H](n5ccc6c(N)ncnc65)O[C@@H]4COP(=O)(S)OC2C3OCC(F)(F)F)c(=O)[nH]1 (single isomer, unassigned) [EC2]			100 to 1000	30000 to 100000
Nc1nc2c(ccn2[C@@H]2O[C@@H]3COP(=O)(S)OC4C(O)[C@@H](COP(=O)(O)OC3C2O)O[C@H]4n2ccc3c(=O)[nH]c(N)nc32)c(=O)[nH]1 (single isomer, unassigned) [EC4]	> 1000	> 100000		
Nc1nc2c(ccn2[C@@H]2O[C@@H]3COP(=O)(S)OC4C(O)[C@@H](COP(=O)(O)OC3C2O)O[C@H]4n2ccc3c(=O)[nH]c(N)nc32)c(=O)[nH]1 (single isomer, unassigned) [EC5]	100 to 1000	30000 to 100000		
Nc1nc2c(ccn2[C@@H]2O[C@@H]3COP(=O)(S)OC4C(O)[C@@H](COP(=O)(O)OC3C2O)O[C@H]4n2ccc3c(N)ncnc32)c(=O)[nH]1 (single isomer, unassigned) [EC8]			> 1000	> 100000
Nc1nc2c(ccn2[C@@H]2O[C@@H]3COP(=O)(S)OC4C(O)[C@@H](COP(=O)(O)OC3C2O)O[C@H]4n2ccc3c(N)ncnc32)c(=O)[nH]1 (single isomer, unassigned) [EC9]	> 1000	> 100000		
Nc1nc2c(ccn2[C@@H]2O[C@@H]3COP(=O)(O)OC4C(O)[C@@H](COP(=O)(S)OC2C3O)O[C@H]4n2cnc3c(N)ncnc32)c(=O)[nH]1 (single isomer, unassigned) [EC14]	> 1000	> 100000		
Nc1nc2c(ccn2[C@@H]2O[C@@H]3COP(=O)(O)OC4C(O)[C@@H](COP(=O)(S)OC2C3O)O[C@H]4n2cnc3c(N)ncnc32)c(=O)[nH]1 (single isomer, unassigned) [EC15]	100 to 1000	< 30000		
Nc1nc2c(ncn2[C@@H]2O[C@@H]3COP(=O)(O)OC4C[C@H](n5ccc6ccccc65)O[C@@H]4COP(=O)(S)OC2C3O)c(=O)[nH]1 (single isomer, unassigned) [EC17]			> 1000	> 100000
Nc1nc2c(ncn2[C@@H]2O[C@@H]3COP(=O)(O)OC4C[C@H](n5ccc6ccccc65)O[C@@H]4COP(=O)(S)OC2C3O)c(=O)[nH]1 (single isomer, unassigned) [EC18]	> 1000	> 100000		

Structure (SMILES)	EC50 [1] [nM]	EC50 [2] [nM]	EC50 [3] [nM]	EC50 [4] [nM]
Nc1nc2c(ncn2[C@@H]2O[C@@H]3COP(=O)(O)OC4C[C@H](c5ccc6ccc7cccc8ccc5c6c78)O[C@@H]4COP(=O)(S)OC2C3O)c(=O)[nH]1 (single isomer, unassigned) [EC20]			> 1000	> 100000
Nc1nc2c(ncn2[C@@H]2O[C@@H]3COP(=O)(O)OC4C[C@H](c5ccc6ccc7cccc8ccc5c6c78)O[C@@H]4COP(=O)(S)OC2C3O)c(=O)[nH]1 (single isomer, unassigned) [EC21]	> 1000	> 100000		
Nc1nc2c(ncn2[C@@H]2O[C@@H]3COP(=O)(S)OC4C(O)[C@H](n5cnc6c(N)ncnc65)O[C@@H]4COP(=O)(O)OC2C3O)c(=O)[nH]1 (single isomer, unassigned) [Example E6]			< 100	< 30000
Nc1nc2c(ncn2[C@@H]2O[C@@H]3COP(=O)(S)OC4C(O)[C@H](n5cnc6c(N)ncnc65)O[C@@H]4COP(=O)(O)OC2C3O)c(=O)[nH]1 (single isomer, unassigned) [Example E7]	< 100	< 30000		
Nc1nc2c(ncn2[C@@H]2O[C@@H]3COP(=O)(O)OC4C(O)[C@H](n5cnc6c(N)ncnc65)O[C@@H]4COP(=O)(S)OC2C3O)c(=O)[nH]1 (single isomer, unassigned) [Example E8]		> 100000	100 to 1000	
Nc1nc2c(ncn2[C@@H]2O[C@@H]3COP(=O)(O)OC4C(O)[C@H](n5cnc6c(N)ncnc65)O[C@@H]4COP(=O)(S)OC2C3O)c(=O)[nH]1 (single isomer, unassigned) [Example E9]	< 100	< 30000		
Nc1nc2c(ncn2[C@@H]2O[C@@H]3COP(=O)(S)OC4C(O)[C@H](n5cnc6c(N)ncnc65)O[C@@H]4COP(=O)(S)OC2C3O)c(=O)[nH]1 (single isomer, unassigned) [Example E12]		< 30000	< 100	
Nc1nc2c(ncn2[C@@H]2O[C@@H]3COP(=O)(S)OC4C(O)[C@H](n5cnc6c(N)ncnc65)O[C@@H]4COP(=O)(S)OC2C3O)c(=O)[nH]1 (single isomer, unassigned) [Example E13]	100 to 1000	> 100000		
Nc1nc2c(ncn2[C@@H]2O[C@@H]3COP(=O)(S)OC4C(O)[C@H](n5cnc6c(N)ncnc65)O[C@@H]4COP(=O)(S)OC2C3O)c(=O)[nH]1 (single isomer, unassigned) [Example E14]	100 to 1000	> 100000		
Nc1nc2c(ncn2[C@@H]2O[C@@H]3COP(=O)(S)O[C@@H]4C(O)[C@H](n5ccc6c(N)ncnc65)O[C@@H]4COP(=O)(S)O[C@H]2C3O)c(=O)[nH]1 (single isomer, unassigned) [Example E15]			> 1000	> 100000
Nc1nc2c(ncn2[C@@H]2O[C@@H]3COP(=O)(S)OC4C(O)[C@H](n5ccc6c(N)ncnc65)O[C@@H]4COP(=O)(S)OC2C3O)c(=O)[nH]1 (single isomer, unassigned) [Example E16]	< 100	< 30000		
Nc1nc2c(ncn2[C@@H]2O[C@@H]3COP(=O)(S)OC4C(O)[C@H](n5ccc6c(N)ncnc65)O[C@@H]4COP(=O)(S)OC2C3O)c(=O)[nH]1 (single isomer, unassigned) [Example E17]	> 1000	> 100000		
Nc1nc2c(ncn2[C@@H]2O[C@@H]3COP(=O)(S)OC4C(O)[C@H](n5ccc6c(N)ncnc65)O[C@@H]4COP(=O)(S)OC2C3O)c(=O)[nH]1 (single isomer, unassigned) [Example E18]	< 100	< 30000		
Nc1nc2c(ccn2[C@@H]2O[C@@H]3COP(=O)(S)OC4C(O)[C@H](n5ccc6c(N)ncnc65)O[C@@H]4COP(=O)(S)OC2C3O)c(=O)[nH]1 (single isomer, unassigned) [Example E20]			100 to 1000	< 30000
Nc1nc2c(ccn2[C@@H]2O[C@@H]3COP(=O)(S)OC4C(O)[C@H](n5ccc6c(N)ncnc65)O[C@@H]4COP(=O)(S)OC2C3O)c(=O)[nH]1 (single isomer, unassigned) [Example E21]	100 to 1000	< 30000		
Nc1nc2c(ccn2[C@@H]2O[C@@H]3COP(=O)(S)OC4C(O)[C@H](n5ccc6c(N)ncnc65)O[C@@H]4COP(=O)(S)OC2C3O)c(=O)[nH]1 (single isomer, unassigned) [Example E22]	100 to 1000	< 30000		
BP1(=O)OC[C@H]2O[C@@H](n3cnc4c(N)ncnc43)C(O)[C@H]2OP(=O)(O)OC[C@H]2O[C@@H](n3cnc4c(=O)[nH]c(N)nc43)[C@@H](O1)C2O (single isomer, unassigned) [Example E25]			< 100	< 30000
Nc1nc2c(ccn2[C@@H]2O[C@@H]3COP(=O)(O)OC4C(O)[C@H](n5ccc6c(N)ncnc65)O[C@@H]4COP(=O)(O)OC2C3O)c(=O)[nH]1 (stereo in doubt) [EA1]			100 to 1000	> 100000
Nc1nc2c(ncn2[C@@H]2O[C@@H]3COP(=O)(O)OC4C(O)[C@H](n5cnc6c(N)ncnc65)O[C@@H]4COP(=O)(O)OC2C3OCC(F)(F)F)c(=O)[nH]1 (stereo in doubt) [EA2]			< 100	< 30000
